One may read the Kd as the equilibrium constant for the complex coming apart. For orientation: IC50 means the concentration at which inhibition is half-maximal.

Our source for the Kd and IC50 values is article doi:10.1101/2024.05.30.596757v1 (biorxiv, 2024).

The target of assay [1] is 53BP1 TTD (tandem tudor domain) (Homo sapiens, UniProt Q12888). Kind of assay: SPR, OneStep gradient injections, kinetic fit with mass transport. Format: binding.
The target of a further assay is eGFP-53BP1 (Homo sapiens, UniProt Q12888). The assay can be described thus: eGFP-53BP1 foci count per nucleus by confocal microscopy, DIvA cells. Format: cell-based.

The structures appear in SMILES notation.

Chain of 53BP1 TTD (tandem tudor domain) (Q12888 1483-1606): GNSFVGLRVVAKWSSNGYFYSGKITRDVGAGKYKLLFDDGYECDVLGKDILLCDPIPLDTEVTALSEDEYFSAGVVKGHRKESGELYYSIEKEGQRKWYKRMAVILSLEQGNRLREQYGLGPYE
Chain of eGFP-53BP1 (Q12888 whole entry): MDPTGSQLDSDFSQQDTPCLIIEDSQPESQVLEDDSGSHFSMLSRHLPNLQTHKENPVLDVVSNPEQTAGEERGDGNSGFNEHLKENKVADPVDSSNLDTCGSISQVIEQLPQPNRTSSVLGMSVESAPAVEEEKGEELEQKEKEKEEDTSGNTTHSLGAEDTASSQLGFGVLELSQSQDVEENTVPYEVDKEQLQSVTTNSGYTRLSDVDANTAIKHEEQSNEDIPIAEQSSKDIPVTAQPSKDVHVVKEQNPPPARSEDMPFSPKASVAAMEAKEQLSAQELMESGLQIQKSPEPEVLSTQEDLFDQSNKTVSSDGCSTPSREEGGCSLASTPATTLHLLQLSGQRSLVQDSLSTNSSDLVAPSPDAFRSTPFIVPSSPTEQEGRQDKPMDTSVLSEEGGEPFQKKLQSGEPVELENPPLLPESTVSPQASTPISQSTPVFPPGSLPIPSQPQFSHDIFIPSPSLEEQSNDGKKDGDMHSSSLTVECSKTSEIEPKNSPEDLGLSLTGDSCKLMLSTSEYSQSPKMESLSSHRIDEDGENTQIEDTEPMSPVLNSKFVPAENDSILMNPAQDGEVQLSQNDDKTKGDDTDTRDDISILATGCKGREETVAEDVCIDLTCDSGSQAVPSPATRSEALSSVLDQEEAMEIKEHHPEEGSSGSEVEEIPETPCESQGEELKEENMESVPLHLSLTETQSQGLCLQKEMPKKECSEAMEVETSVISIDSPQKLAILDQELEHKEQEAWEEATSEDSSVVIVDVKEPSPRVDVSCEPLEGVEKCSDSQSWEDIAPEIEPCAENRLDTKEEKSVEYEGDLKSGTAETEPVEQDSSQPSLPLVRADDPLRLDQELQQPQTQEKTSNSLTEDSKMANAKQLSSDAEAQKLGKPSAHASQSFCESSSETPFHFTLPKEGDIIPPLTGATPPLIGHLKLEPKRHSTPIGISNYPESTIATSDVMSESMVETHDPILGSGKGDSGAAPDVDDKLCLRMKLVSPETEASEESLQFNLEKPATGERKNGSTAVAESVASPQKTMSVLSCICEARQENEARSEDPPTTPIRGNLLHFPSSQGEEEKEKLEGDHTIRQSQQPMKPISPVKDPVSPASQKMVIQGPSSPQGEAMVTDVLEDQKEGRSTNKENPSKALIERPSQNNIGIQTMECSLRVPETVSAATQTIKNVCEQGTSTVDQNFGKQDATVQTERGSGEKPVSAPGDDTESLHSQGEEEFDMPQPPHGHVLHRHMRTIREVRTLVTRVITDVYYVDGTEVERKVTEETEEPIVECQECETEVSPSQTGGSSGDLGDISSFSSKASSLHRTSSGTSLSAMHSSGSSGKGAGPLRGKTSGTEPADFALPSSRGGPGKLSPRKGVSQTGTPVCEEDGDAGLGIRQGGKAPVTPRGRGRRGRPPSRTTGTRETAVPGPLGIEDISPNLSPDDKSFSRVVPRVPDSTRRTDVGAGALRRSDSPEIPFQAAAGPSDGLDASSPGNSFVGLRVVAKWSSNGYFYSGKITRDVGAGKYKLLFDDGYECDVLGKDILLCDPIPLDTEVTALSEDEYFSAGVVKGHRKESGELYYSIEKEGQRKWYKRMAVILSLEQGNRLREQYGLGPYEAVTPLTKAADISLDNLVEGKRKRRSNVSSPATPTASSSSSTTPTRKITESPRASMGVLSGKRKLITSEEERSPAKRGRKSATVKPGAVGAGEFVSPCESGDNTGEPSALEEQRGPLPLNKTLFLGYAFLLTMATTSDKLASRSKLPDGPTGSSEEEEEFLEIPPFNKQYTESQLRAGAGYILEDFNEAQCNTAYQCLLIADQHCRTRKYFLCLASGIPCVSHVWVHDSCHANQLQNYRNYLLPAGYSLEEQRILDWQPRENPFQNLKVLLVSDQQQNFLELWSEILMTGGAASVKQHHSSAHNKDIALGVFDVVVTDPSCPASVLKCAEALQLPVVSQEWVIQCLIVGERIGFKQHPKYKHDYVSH

`CCN1CCN(C(=O)c2ccc(Cn3nc(C)cc3C)cc2)CC1` [EoHR, (4-((3,5-dimethyl-1H-pyrazol-1-yl)methyl)phenyl)(4-ethylpiperazin-1-yl)methanone] had an equilibrium dissociation constant (Kd) in assay [1] of 14 µM. The molecule further yielded an IC50 against eGFP-53BP1 of 13 ± 5 µM.
